The text below walks through data of patent US20050222229A1, “Fungicidal mixtures” (priority 2002, published 2005).

This experiment deals with Plasmopara viticola. Nature of the experiment: Persistency against peronospora of grapevine caused by Plasmopara viticola (potted grapevines, inoculation 3 days after spraying). The experiment is classed as in vivo. The following applies: grapevine Müller-Thurgau, inoculated 3 days after treatment. How it is done:
The active compounds, separately or together, were formulated as a stock solution comprising 0.25% by weight of active compound in acetone or DMSO. 1% by weight of the emulsifier Uniperol® EL (wetting agent having emulsifying and dispersing action based on ethoxylated alkylphenols) was added to the solution, and the mixture was diluted with water to the desired concentration.
Use example: Persistency against peronospora of grapevine caused by Plasmopara viticola.
Leaves of potted grapevines of the cultivar “Müller-Thurgau” were sprayed to run off point with an aqueous suspension having the concentration of active compound stated below. To be able to assess the persistency of the substances, the plants were, after the spray coating had dried on, placed in a greenhouse for 3 days. Only then were the leaves inoculated with an aqueous zoospore suspension of Plasmopara viticola. The grapevines were then initially placed in a water-vapor-saturated chamber at 24° C. for 48 hours and then in a greenhouse at temperatures between 20 and 30° C. for 5 days. After this period of time, the plants were, to promote sporangiophore eruption, again placed in a humid chamber for 16 hours. The extent of the development of the infection on the undersides of the leaves was then determined visually.
for evaluation, the visually determined values for the percentages of infected leaf area were converted into efficacies in. % of the untreated control.
The efficacy (E) is calculated as follows using Abbot's formula: E=(1−α/β)·100 • α corresponds to the fungal infection of the treated plants in % and • β corresponds to the fungal infection of the untreated (control) plants in %
An efficacy of 0 means that the infection level of the treated plants corresponds to that of the untreated control plants; an efficacy of 100 means that the treated plants were not infected.
The expected efficacies of the active compound mixtures are determined using Colby's formula [R. S. Colby, Weeds 15, 20-22 (1967)] and compared with the observed efficacies. Colby's formula: E=x+y−x·y/100 • E expected efficacy, expressed in % of the untreated control, when using the mixture of the active compounds A and B at the concentrations a and b • x efficacy, expressed in % of the untreated control, when using active compound A at a concentration of a
y efficacy, expressed in % of the untreated control, when using active compound B at a concentration of b

Where [1] appears, read: 0.375 ppm active compound in the spray liquor.
The mark [2] stands for this setting: 0.75 ppm active compound in the spray liquor.
[3] abbreviates: 1.5 ppm active compound in the spray liquor.
[4] abbreviates: 3 ppm active compound in the spray liquor.
The mark [5] stands for this setting: 6 ppm active compound in the spray liquor.

As for `N#Cc1sc2c(=O)c3ccccc3c(=O)c=2sc1C#N` [II, dithianon], the “Efficacy in % of the untreated control” value came to 0% (3.75 ppm active compound in the spray liquor), 20% (7.5 ppm active compound in the spray liquor) and 32% (15 ppm active compound in the spray liquor).

In the case of `CSC1=N[C@@](C)(c2ccccc2)C(=O)N1Nc1ccccc1` [Ia, fenamidone], the “Efficacy in % of the untreated control” value is recorded as 66% under setting [1]; 77% under setting [2]; 93% under setting [3]; 89% under setting [4]; 94% under setting [5].

Regarding `CC1(c2ccc(Oc3ccccc3)cc2)OC(=O)N(Nc2ccccc2)C1=O` (stereo not shown) [Ib, famoxadone], the “Efficacy in % of the untreated control” value runs as follows: under setting [1], 0%; under setting [2], 77%; under setting [3], 83%; under setting [4], 89%; under setting [5], 89%.
